Experiments:
[1] = tested on: advanced solid tumors; assay type: in vivo, human
Method: Phase 1: 4-iodo-3-nitrobenzamide is administered intravenously twice weekly (days 1 and 4 of each week) for 3 weeks, followed by a one week 4-iodo-3-nitrobenzamide treatment-free period per one 28-day cycle. Cycle one (day 1 through day 28) is defined as the Safety Phase of the study during which DLTs is assessed and the MTD is determined. The remainder of the study is termed the Maintenance Phase. A subject may participate in this study until he/she experiences a drug intolerance or disease progression. […] For non-measurable disease, best medical practices are used to determine disease progression.
In cohort A (starting dose), a single subject receives 4-iodo-3-nitrobenzamide twice weekly at a dose level of 0.5 mg/kg based on weight measured at screening. If this subject experiences a grade 2 toxicity or higher, then 3 additional subjects would be enrolled in this cohort (only 2 additional subjects would be enrolled in this cohort if the initial subject receives at least 80% of the planned cycle 1 doses). If no additional subjects dosed in this cohort experience a DLT, then dose escalation would occur as below. If no DLT occurs in the initial subject, dose escalation would occur as below. The safety review group has the ability to recommend dose escalation (opening of a new cohort), without expansion with additional subjects, for cases of grade 2 toxicity seen in a single subject that are deemed not to be clinically relevant and/or study treatment-related. Dose Escalation Prior to Grade 2 Toxicity (Potential Cohorts B-J): Until a subject experiences a grade 2 toxicity or higher, one subject would be initially enrolled in all subsequent cohorts at planned 100% dose level increases, with possible cohort expansion as described for cohort A. Safety data are reviewed after 6 doses of 4-iodo-3-nitrobenzamide, and a decision to escalate to the next cohort would be made if no subject experiences a grade 2 toxicity or higher. […]

[2] = tested on: advanced solid tumors; assay: 4-iodo-3-nitrobenzamide in combination with cytotoxic chemotherapeutic agents, safety and best response; assay type: in vivo, human
Method: 42 subjects (advanced solid tumors) were treated with 4-iodo-3-nitrobenzamide in combination with cytotoxic chemotherapeutics agents (topotecan, temozolomide, gemcitabine, or carboplatin/taxol) at 4-iodo-3-nitrobenzamide doses of 1.1, 2.0, 2.8, 4.0 and 5.6 mg/kg.

[3] = tested on: Bcr-ab1; details: background statement; read-out: IC50, inhibition of Bcr-ab1 phosphorylation; cited from earlier work
[4] = tested on: panel of 63 other kinases, including native c-Ab1; details: background statement; cited from earlier work
[5] = tested on: cells not expressing Bcr-Ab1; details: background statement; cited from earlier work

SMILES	best response measured to date ([1]; 24 subjects, monotherapy 0.5-8.0 mg/kg)	dose limiting toxicities (DLTs) ([1]; in vivo)	cycles of treatment completed with continued stable disease ([1]; one subject, monotherapy) [cycles]	tolerability ([2]; 42 subjects, advanced solid tumors, with topotecan, temozolomide, gemcitabine or carboplatin/taxol, BA 1.1, 2.0, 2.8, 4.0 and 5.6 mg/kg, preliminary safety data)	relation of serious adverse events to study drug ([2]; 42 subjects, combination with cytotoxic agents, judged by study investigators)	SAEs attributed to drug ([2]; either study (monotherapy, 24 subjects; combination with cytotoxic agents, 42 subjects))	additional toxicities when combined with standard cytotoxic chemotherapy ([2]; safety data of both studies)	potentiation of known toxicities of standard chemotherapeutic agents ([2]; safety data of both studies)	IC50 [3] [nM]	inhibition of a panel of 63 other kinases, including native c-Ab1 [4]	toxicity towards cells not expressing Bcr-Ab1 [5]
NC(=O)c1ccc(I)c([N+](=O)[O-])c1 [4-iodo-3-nitrobenzamide]	stable disease present through at least cycle 2 of the study for six subjects	no dose limiting toxicities (DLTs) were observed at any dose level	9	well tolerated at all dose levels tested	deemed not related to study drug	no SAEs attributed to 4-iodo-3-nitrobenzamide in either study	would not cause any additional toxicities	no evidence that 4-iodo-3-nitrobenzamide would potentiate any known toxicities			
NC(=O)c1cccc(-c2cc(Nc3ccc(OC(F)(F)F)cc3)ncn2)c1 [GNF-2]									267	does not inhibit	complete lack of toxicity

— patent US20130274281A1, “METHODS OF TREATING METASTATIC BREAST CANCER WITH 4-IODO-3-NITROBENZAMIDE AND IRINOTECAN” (BiPar Sciences, Inc., priority 2010, published 2013)
